# Literature values in patent US20220087927A1, “ANTIMICROBIAL AGENT” (priority 2020, published 2022).
# Tests used:
# Conditions in all cases: suspension 10^7-10^8 per ml
# [1] = system: Koji mold (asprogillus brasiliensis)
# Staphylococcus aureus = system: Staphylococcus aureus
# [2] = system: Candida (candida albicians)
# [3] = system: E. coli (Escherichia coli)
# Pseudomonas aeruginosa = system: Pseudomonas aeruginosa
smiles,measurement,setting,value
OCCCCO [butylene glycol],MIC (minimum growth prevention concentration),[1],18%
same,MIC (minimum growth prevention concentration),Staphylococcus aureus,16%
same,MIC (minimum growth prevention concentration),[2],14%
same,MIC (minimum growth prevention concentration),[3],10%
same,MIC (minimum growth prevention concentration),Pseudomonas aeruginosa,8%
CCO [ethanol],MIC (minimum growth prevention concentration),[1],5%
same,MIC (minimum growth prevention concentration),Staphylococcus aureus,9%
same,MIC (minimum growth prevention concentration),[2],7%
same,MIC (minimum growth prevention concentration),[3],5%
same,MIC (minimum growth prevention concentration),Pseudomonas aeruginosa,5%
